{"source": "ChEMBL document CHEMBL1146738", "about": "“Synthesis and glucose-6-phosphatase inhibitory activity of (thiouriedo)alkanoic acid esters” (Bioorg Med Chem Lett, 2004)", "molecular_target": "T1, Glucose-6-phosphatase catalytic subunit 1 (Rattus norvegicus) (UniProt P43428)", "T1 sequence (whole entry)": "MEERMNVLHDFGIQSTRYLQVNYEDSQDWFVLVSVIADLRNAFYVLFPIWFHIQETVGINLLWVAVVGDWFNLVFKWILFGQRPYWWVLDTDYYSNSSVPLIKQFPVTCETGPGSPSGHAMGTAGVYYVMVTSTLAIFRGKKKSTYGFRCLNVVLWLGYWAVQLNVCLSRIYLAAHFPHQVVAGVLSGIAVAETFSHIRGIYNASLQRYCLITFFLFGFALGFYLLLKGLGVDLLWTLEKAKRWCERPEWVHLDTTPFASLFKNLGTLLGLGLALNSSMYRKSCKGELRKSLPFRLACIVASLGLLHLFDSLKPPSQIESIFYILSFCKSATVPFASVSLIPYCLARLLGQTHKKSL", "assay": "In vitro inhibition of glucose-6-phosphatase obtained from rat was determined at 100 uM concentration"}
{"smiles": "N=C(N)/N=C(\\S)Nc1ccccn1", "values": [{"measurement": "inhibition", "result": 20, "unit": "%"}]}
{"smiles": "CCOC(=O)CC/N=C(\\S)Nc1ccccn1", "values": [{"measurement": "inhibition", "result": 18, "unit": "%"}]}
{"smiles": "N/N=C(\\S)Nc1ccccn1", "values": [{"measurement": "inhibition", "result": 38.5, "unit": "%"}]}
{"smiles": "CCOC(=O)CC/N=C(\\S)Nc1ccc(Cl)cn1", "values": [{"measurement": "inhibition", "result": 54.4, "unit": "%"}]}
{"smiles": "COC(=O)C/N=C(\\S)Nc1ccc(Cl)cn1", "values": [{"measurement": "inhibition", "result": 74.6, "unit": "%"}]}
{"smiles": "CCOC(=O)C(Cc1ccccc1)/N=C(\\S)Nc1ccc(Cl)cn1", "note": "(stereo not given)", "values": [{"measurement": "inhibition", "result": 50, "unit": "%"}]}
{"smiles": "CCOC(=O)C(Cc1ccccc1)/N=C(\\S)Nc1ccccn1", "note": "(stereo not given)", "values": [{"measurement": "inhibition", "result": 29, "unit": "%"}]}
{"smiles": "COC(=O)C(Cc1c[nH]c2ccccc12)/N=C(\\S)Nc1ccccn1", "note": "(stereo not given)", "values": [{"measurement": "inhibition", "result": 21.5, "unit": "%"}]}
{"smiles": "COC(=O)C(C)/N=C(\\S)Nc1ccccn1", "note": "(stereo not given)", "values": [{"measurement": "inhibition", "result": 17.7, "unit": "%"}]}
{"smiles": "COC(=O)C(Cc1c[nH]c2ccccc12)/N=C(\\S)Nc1ccc(Cl)cn1", "note": "(stereo not given)", "values": [{"measurement": "inhibition", "result": 52.2, "unit": "%"}]}
